≈ marks a conversion by molar mass, not a printed value.
System: RFR2 (RFR cloned by three rounds of limiting dilution)
Test: CEM-T4 cell infection assay, reverse transcriptase readout, resistant isolate RFR2
Format: cell-based, HIV-1
Details: Human immunodeficiency virus 1, 168 h, Table 6, CEM-T4 cells, 7 days, read-out: Virus Isolate (EC50 ng/mL) RFR2
Description: RF represents the HIV-1 strain HIV-LRF and RFR represents a mixture of resistant strains obtained by selection of RF against the compound of Example 1. RFR comprises a mixture of viral strains having protease genotypes of G48V (14/40 clones); G48V, V82A (18/40 clones); G48V, L90S (2/40 clones); G48V, 154T, V82A (1/40 clones); G48M (1/40 clones); G48V, Q61H (1/40 clones); V13I, G48V (1/40 clones); G48V, F53L, V82A (1/40 clones); and G48V, V82A, C95Y (1/40 clones). RFR2 represents a mixture of resistant strains obtained by cloning RFR by three rounds of growth at limiting dilution. RFR2 comprises a mixture of viral strains having protease genotypes of G48V, V82A (13/15 clones); G17E, G48V, V82A (1/15 clones); and G48V, V82A, N37D, N88D (1/15 clones). RFRR represents a mixture of resistant strains obtained by selection of RF against the compounds of Examples 1 and 2 and then cloning by three rounds of growth at limiting dilution. RFRR comprises a mixture of viral strains having protease genotypes of G48V, 154T, L63P, V82A (7/9 clones); G48V, 154T, L63P, V82A, N88S (1/9 clones); and G48V, 154T, L63P, G73M, V82A (1/9 clones). SF162 represents the HIV-1 strain SF-162 and SF162R represents a mixture of resistant strains obtained by selection of SF162 against the compound of Example 1. SF162R comprises a mixture of viral strains having protease genotypes of M461, F53L, L63P, A71V, N88D (2/3 clones); and M46I, F53L, L63P, A71V, N88D, Q92R (1/3 clones). 89-959 represents the HIV-1 strain 89-959 and 89-959R represents a mixture of resistant strains obtained by selection of 89-959 against the compound of Example 2. 89-959R comprises a mixture of viral strains having protease genotypes of N88S (4/5 clones); and D25N, T26A, D30N, D37N, R41K, G73D, R87K, N88S (1/4 clones). NL4 represents the HIV-1 strain HIV-1NL4-3. NL4(G48V) represents a strain having a synthetically generated site-directed mutation in the protease from glycine to valine at amino acid position number 48. NL4(I84V) represents a strain having a synthetically generated site-directed mutation in the protease from isoleucine to valine at amino acid position number 84. NL4(R8Q,M46I) represents a strain having synthetically generated site-directed mutations in the protease from arginine to glutamine at amino acid position number 8 and methionine to isoleucine at amino acid position number 46. NL4(P22-538) represents a mixture of resistant strains obtained by selection of HIV-1NL4-3 against the compound of Example 10 after 22 passages comprising protease genotypes M46I, L63P, A71V, V82F, I84V (4/10); M46I, L63P, V82F, I84V (3/10); and M46I, A71V, V82F, I84V (3/10). NL4(P37-538) represents resistant strains obtained by selection of HIV-1NL4-3 against the compound of Example 10 after 37 passages comprising protease genotype M46I, L63P, A71V, 184A. NL4(538/524) represents resistant strains obtained by selection of NL4(P22-538) against the compound of Example 5 after 24 passages comprising protease genotype M46I, L63P, A71V, 184A. NL4(538/P7-AG) represents a mixture of resistant strains obtained by selection of NL4(P22-538) against the compound of Example 12 after 7 passages comprising protease genotypes M46I, L63P, A71V, 184A; and V321, V82I. NL4(538/P24-AG) represents resistant strains obtained by selection of NL4(P22-538) against the compound of Example 12 after 24 passages comprising protease genotype M46I, L63P, A71V, 184A. NLA(P19-003) represents resistant strains obtained by selection of HIV-1^NL4-3 against the compound of Example 9 after 19 passages comprising protease genotype R8K, M46I. NL4(P34-003) represents resistant strains obtained by selection of HIV-1^NL4-3 against the compound of Example 9 after 34 passages comprising protease genotype R8K, M46I, L63P, A71V, L90M.
The viral isolate resistance results summarized in Tables 4-6 were generated according to the following assay procedure or minor modifications thereof. Assays are performed in 96-well tissue culture plates. […]

Compared with `CNCC(=O)N[C@H](C(=O)N[C@@H](Cc1ccccc1)[C@H](O)CN(CCC(C)C)C(=O)NC(C)(C)C)C(C)(C)C` [Example 2, (2R,3S)-3-(N-methylaminoacetyl-L-tert-butylglycinyl)amino-1-(N-isoamyl-N-(tert-butylcarbamoyl))amino-4-phenyl-2-butanol], `CC(C)CN(C[C@@H](O)[C@H](Cc1ccccc1)NC(=O)[C@H](CC(N)=O)NC(=O)c1ccc2ccccc2n1)C(=O)NC(C)(C)C` (relative stereo) [Example 1, [1S-[1R*(R*),2S*]]-N^1-[3-[[[(1,1-dimethylethyl)amino]carbonyl])2-methylpropyl)amino]-2-hydroxy-1-(phenylmethyl)propyl]-2-[(2-quinolinylcarbonyl)amino]-butanediamide] is 2.4-fold higher in EC50: 367 ng/mL (≈ 0.688 µM) for the first, 880 ng/mL (≈ 1.46 µM) for the second.

Going from `CC(C)(C)NC(=O)[C@@H]1CN(Cc2cccnc2)CCN1C[C@@H](O)C[C@@H](Cc1ccccc1)C(=O)N[C@H]1c2ccccc2C[C@H]1O` [Example 5, N-(2(R)-Hydroxy-1(S)-indanyl)-2(R)-phenylmethyl-4(S)-hydroxy-5-(1-(4-(3-pyridylmethyl)-2(S)-N′-(t-butylcarboxamido)-piperazinyl))-pentaneamide] to `CC(C)(C)NC(=O)[C@@H]1CC2CCCC[C@@H]2CN1C[C@@H](O)[C@H](Cc1ccccc1)NC(=O)[C@H](CC(N)=O)NC(=O)c1ccc2ccccc2n1` (stereo in doubt) [Example 6, N-tert-Butyl decahydro-2-[2(R)-hydroxy-4-phenyl-3(S)-[[N-(2-quinolylcarbonyl)-L-asparaginyl]amino]butyl]-(4aR,8aS)-isoquinoline-3(S)-carboxamide], the EC50 falls from 57 ng/mL (≈ 0.0929 µM) to 31 ng/mL (≈ 0.0462 µM) (1.8-fold).

— US20030207813A1, “Retroviral protease inhibitor combinations” (priority 1995, published 2003)
